Legend:
HCC [1] = assay: Thalidomide as adjuvant therapy after curative resection for HCC, HCC recurrence by LHX4 expression group (Kaplan-Meier); type: in vivo, human; conditions: for HCC recurrence rate (%) / Number of HCC recurrence patients: three-year
Experimental: Samples of liver tissue were obtained from 48 patients, who suffered HCC at stage II or III (defined by American Joint Committee on Cancer, AJCC) and underwent curative resection for the HCC. All of the patients were enrolled within 4 weeks after surgery. 27 of the patients received Thalidomide 200 mg/day and the others received a placebo 200 mg/day for 12 months or until HCC recurrence.
The sample of liver tissue from each patient includes tumorous tissue and non-tumorous tissue neighboring the tumorous tissue. The respective Lhx4 proteins in the tumorous and non-tumorous tissues of each patient were detected using western blot and then quantified by ImageJ software (published by the National Institutes of Health of United States of America). The quantified results of the Lhx4 proteins in the tumorous and non-tumorous tissues were respectively normalized based on the quantified results of β-actin in the tumorous and non-tumorous tissues of the corresponding patient to obtain the (protein) expression levels of the LHX4 gene in the tumorous and non-tumorous tissues of the patient.
For each and every patient, the expression level of the LHX4 gene in the tumorous tissue (called “T” hereinafter) was divided by the expression level of the LHX4 gene in the non-tumorous tissue (called “NT” hereinafter) to obtain a T/NT ratio, which represents the decreasing magnitude of the expression level of the LHX4 gene in the tumorous tissue when compared with the non-tumorous tissue.
In an embodiment, the correlation between the decreasing magnitude of the expression level of the LHX4 gene in the tumorous tissue of a patient and the therapeutic effect of Thalidomide on the liver cancer of the patient is indicated by the HCC recurrence of the patient. Specifically, the end date of observation of a patient's HCC recurrence is set as the date three years after the surgery for the liver cancer.
In an embodiment, the 48 patients were divided into two groups according the T/NT ratio to evaluate the therapeutic effect of Thalidomide on the patients. […]
Each of FIGS. 2A, 2B and 2C show the respective 3-year HCC recurrence-free survival days (from the date that the patient underwent the surgery for the liver cancer to the date of observing the HCC recurrence of the patient) of the patients, where the event in the curves is the first HCC recurrence of a patient after the surgery.
In an embodiment, for each of the 48 patients, the LHX4 expression level in the tumorous tissue was obtained through normalizing the quantified result of the western blot of the Lhx4 protein of the tumorous tissue based on a specific amount of β-actin in the tumorous tissue. After the normalization, the LHX4 expression levels in the tumorous tissue of all the patients, normalized by the same amount of β-actin, were obtained. […] Each of FIGS. 3A, 3B and 3C show the respective 3-year HCC recurrence-free survival days (from the date that the patient underwent the surgery for the liver cancer to the date of observing the HCC recurrence of the patient) of the patients, where the event of the curves is the first HCC recurrence in a patient after the surgery.

HCC [2] = conditions: adjuvant therapy after surgical resection; placebo 33%; cited from earlier work
[3] = T/NT ratio < 0.2, 13 total patients
[4] = T/NT ratio ≧ 0.2, 14 total patients

SMILES: O=C1CCC(N2C(=O)c3ccccc3C2=O)C(=O)N1 (racemic) [Thalidomide, (RS)-2-(2,6-dioxopiperidin-3-yl)-1H-isoindole-1,3(2H)-dione]
- mean 3-year HCC recurrence-free survival days, lower group compared with higher group (HCC [1]; groups divided by arithmetic average of LHX4 expression levels in tumorous tissue, patients receiving Thalidomide): obviously delayed
- mean 3-year HCC recurrence-free survival days (HCC [1]; higher group, LHX4 expression level in tumorous tissue not lower than 0.17 (median), 14 patients, FIG. 3B/3C, P=0.567 vs placebo (535 days)): 466 days
- mean 3-year HCC recurrence-free survival days (HCC [1]; higher group, T/NT ratio not lower than 0.2, Thalidomide 200 mg/day, 14 patients, FIG. 1B/1C, P=0.687 vs placebo (535 days)): 521 days
- mean 3-year HCC recurrence-free survival days (HCC [1]; higher group, T/NT ratio not lower than 0.5, 5 patients, FIG. 2B/2C, P=0.272 vs placebo (493 days)): 344 days
- mean 3-year HCC recurrence-free survival days (HCC [1]; lower group, LHX4 expression level in tumorous tissue lower than 0.17 (median), 13 patients, FIG. 3A/3C, P=0.033 vs placebo (526 days)): 833 days
- mean 3-year HCC recurrence-free survival days (HCC [1]; lower group, T/NT ratio lower than 0.2, Thalidomide 200 mg/day, 13 patients, FIG. 1A/1C, P=0.06 vs placebo (526 days)): 744 days
- mean 3-year HCC recurrence-free survival days (HCC [1]; lower group, T/NT ratio lower than 0.5, 22 patients, FIG. 2A/2C, P=0.2 vs placebo (545 days)): 711 days
- HCC recurrence rate (%) (HCC [1]; [3]): 38.5%
- Number of HCC recurrence patients (HCC [1]; [3]): 5
- HCC recurrence rate (%) (HCC [1]; [4]): 85.7%
- Number of HCC recurrence patients (HCC [1]; [4]): 12
- two-year HCC recurrence-free survival rate (HCC [2]): 65%
